Measurements as given in patent US20080194585A1, “Fungicidal Pyrazine Derivatives” (priority 2005, published 2008).
Marks after values point to notes of the source that are not given here.

How the values were obtained:
[1] = test system: Puccinia recondita f. sp. tritici; assay: Test K: wheat leaf rust, preventive spray on wheat seedlings
[2] = test system: Erysiphe graminis f. sp. tritici; assay: Test L: wheat powdery mildew, preventive spray on wheat seedlings
[3] = test system: Colletotrichum orbiculare; assay: Test B: cucumber Colletotrichum anthracnose, preventive spray on cucumber seedlings
[4] = test system: Botrytis cinerea; assay: Test E: tomato botrytis, preventive spray on tomato seedlings
[5] = test system: Plasmopara viticola; assay: Test D: grape downy mildew, spray after inoculation of grape seedlings; format: in vivo
Source text: Upon removal, disease ratings were made. […] A dash (-) indicates no test results.

[6] = test system: Pythium aphanidermatum; assay: Test A: bluegrass pythium blight, preventive spray on bluegrass seedlings
[7] = test system: Phytophthora infestans; assay: whole plant or invertebrate; format: in vivo
[8] = test system: fusarium graminearium; assay: Test I: wheat head scab, preventive spray on wheat seedlings; details: for Test I disease control rating: 200 ppm
Procedure: (the causal agent of wheat head scab) and incubated in a saturated atmosphere at 20° C. for 72 h, and then moved to a growth chamber at 22° C. for 5 days, after which disease ratings were made.

[9] = test system: Septoria nodorum; assay: Test H: wheat glum blotch, preventive spray on wheat seedlings
Procedure: (the causal agent of wheat glum blotch) and incubated in a saturated atmosphere at 20° C. for 48 h, and then moved to a growth chamber at 22° C. for 5 days, after which disease ratings were made.

[10] = test system: Rhizoctonia oryzae; assay: Test G: turf brown patch, preventive spray on creeping bent grass seedlings
Procedure: (the causal agent of turf brown patch) and incubated in a saturated atmosphere at 27° C. for 24 h, and then moved to a growth chamber at 27° C. for 5 days, after which disease ratings were made.

[11] = test system: Septoria tritici; assay: Test J: wheat leaf blotch, preventive spray on wheat seedlings; format: in vivo; details: 40 ppm (marked *); 100 = 100% disease control, 0 = no control
Source text: A dash (-) indicates no test results.

[12] = 40 ppm (marked *), 100 = 100% disease control, 0 = no control
[13] = 200 ppm, 100 = 100% disease control, 0 = no control
[14] = 200 ppm, 100 = 100% disease control, 0 = no control relative to controls
[15] = 100 = 100% disease control, 0 = no control relative to controls

SMILES | Test K disease control rating [1, 12] | Test L disease control rating [2, 12] | Test B disease control rating [3, 12] | Test E disease control rating [4, 12] | Test D disease control rating [5, 12] | Test J disease control rating [11] | Test A disease control rating [6, 12] | Test F disease control rating [7, 12] | Test H disease control rating [9, 12] | Test G disease control rating [10, 12] | other results
CC(C)=Nn1c(-c2c(F)cccc2F)c(Cl)nc(-n2cccn2)c1=O [Compound 392, 5-Chloro-6-(2,6-difluorophenyl)-1-[(1-methylethylidene)amino]-3-(1H-pyrazol-1-yl)-2(1H)-pyrazinone] | – | – | – | – | – | – | – | – | – | – | pest or weed control at 200 ppm ([1]; Puccinia recondita, in Triticum aestivum, 192 h, read-out: Test K disease control rating): 99%; pest or weed control at 200 ppm ([2]; Blumeria graminis, in Triticum aestivum, 168 h, read-out: Test L disease control rating, 200 ppm, 100 = 100% disease control, 0 = no control relative to controls): 59%; pest or weed control at 200 ppm ([3]; Colletotrichum orbiculare, in Cucumis sativus, 144 h, read-out: Test B disease control rating, 200 ppm, 100 = 100% disease control, 0 = no control relative to controls): 0%; pest or weed control at 200 ppm ([4]; Botrytis cinerea, in Solanum lycopersicum, topical, 72 h, read-out: Test E disease control rating): 99%; pest or weed control at 200 ppm ([5]; Plasmopara viticola, 168 h, 200 ppm, 100 = 100% disease control, 0 = no control relative to controls, read-out: Test D disease control rating): 0%; pest or weed control at 200 ppm ([6]; Pythium aphanidermatum, 120 h, read-out: Test A disease control rating): 0%; pest or weed control at 200 ppm ([7]; Phytophthora infestans, in Solanum lycopersicum, topical, 144 h, read-out: Test F disease control rating): 0%; pest or weed control at 200 ppm ([8]; Fusarium, in Triticum aestivum, topical, 192 h, read-out: Test I disease control rating, 200 ppm, 100 = 100% disease control, 0 = no control relative to controls): 0%; pest or weed control at 200 ppm ([9]; Parastagonospora nodorum, in Triticum aestivum, topical, 168 h, read-out: Test H disease control rating, 200 ppm, 100 = 100% disease control, 0 = no control relative to controls): 78%; pest or weed control at 200 ppm ([10]; Waitea circinata, in Agrostis stolonifera, topical, 144 h, read-out: Test G disease control rating, 200 ppm, 100 = 100% disease control, 0 = no control relative to controls): 69%
CC(C)Cn1c(-c2c(F)cccc2F)c(Cl)nc(N2CCC=N2)c1=O [compound 4] | – | – | – | – | – | – | – | – | – | – | Test K disease control rating ([1]; 200 ppm): 98%; Test L disease control rating ([2]; 200 ppm): 96%; Test B disease control rating ([3]; 200 ppm): 0%; Test E disease control rating ([4]; 200 ppm): 96%; Test D disease control rating ([5]; 200 ppm): 12%; Test A disease control rating ([6]; 200 ppm): 0%; Test F disease control rating ([7]; 200 ppm): 0%; Test I disease control rating [8]: 0%; Test H disease control rating ([9]; 200 ppm): 99%; Test G disease control rating ([10]; 200 ppm): 99%
O=c1c(-n2cccn2)nc(Cl)c(-c2c(F)cc(F)cc2F)n1-c1ccc(F)c(F)c1 [compound 365] | 100* % | 96* % | 99* % | 98* % | 16* % | 100* % | 0* % | 0* % | 100* % | 99* % | –
Cc1ccn(-c2nc(Cl)c(-c3c(F)cc(F)cc3F)n(-c3ccc(F)c(F)c3)c2=O)n1 [compound 366] | 100* % | 93* % | 99* % | 99* % | 0* % | 96* % | 0* % | 0* % | 100* % | 89* % | –
O=c1c(-n2cccn2)nc(Cl)c(-c2c(F)cc(F)cc2F)n1-c1cc(F)cc(F)c1 [compound 367] | 100* % | 99* % | 100* % | 99* % | 0* % | 99* % | 0* % | 0* % | 100* % | 99* % | –
Cc1ccn(-c2nc(Cl)c(-c3c(F)cc(F)cc3F)n(-c3cc(F)cc(F)c3)c2=O)n1 [compound 368] | 100* % | 99* % | 99* % | 99* % | 0* % | 100* % | 0* % | 0* % | 100* % | 99* % | –
O=c1c(-n2cccn2)nc(Cl)c(-c2c(F)cc(F)cc2F)n1-c1cccc(F)c1F [compound 369] | 100* % | 98* % | 100* % | 99* % | 0* % | 100* % | 0* % | 0* % | 100* % | 99* % | –
Cc1ccn(-c2nc(Cl)c(-c3c(F)cc(F)cc3F)n(-c3cccc(F)c3F)c2=O)n1 [compound 370] | 100* % | 96* % | 100* % | 99* % | 0* % | 100* % | 0* % | 0* % | 100* % | 92* % | –
O=c1c(-n2cccn2)nc(Cl)c(-c2c(F)cc(F)cc2F)n1-c1ccc(Cl)cc1 [compound 371] | 100* % | 98* % | 99* % | 99* % | 0* % | 100* % | 0* % | 0* % | 100* % | 99* % | –
Cc1ccn(-c2nc(Cl)c(-c3c(F)cc(F)cc3F)n(-c3ccc(Cl)cc3)c2=O)n1 [compound 372] | 100* % | – | 100* % | 99* % | 0* % | 100* % | 0* % | 0* % | 100* % | – | Test L disease control rating [2, 13]: 98%; Test G disease control rating [10, 13]: 82%
C#CCNC(=O)c1nc(Cl)c(-c2c(F)cc(F)cc2F)n(CC(C)CC)c1=O (stereo not shown) [compound 416] | – | – | – | – | – | – | – | – | – | – | Test K disease control rating [1, 14]: 100%; Test L disease control rating [2, 14]: 99%; Test B disease control rating [3, 14]: 99%; Test E disease control rating [4, 14]: 99%; Test I disease control rating [8, 15]: 0%; Test H disease control rating [9, 14]: 100%
NC(=O)c1nc(Cl)c(-c2c(F)ccc(F)c2F)n(-c2ccccc2)c1=O [compound 419] | 100* % | 0* % | – | 97* % | – | – | – | – | 94* % | 0* % | Test D disease control rating [5, 14]: 32%; Test A disease control rating [6, 14]: 100%; Test F disease control rating [7, 14]: 95%; Test I disease control rating [8, 15]: 73%
NC(=O)c1nc(Cl)c(-c2c(F)cc(F)cc2F)n(-c2ccccc2)c1=O [compound 420] | 100* % | 41* % | – | 94* % | – | – | – | – | 96* % | 0* % | Test D disease control rating [5, 14]: 31%; Test A disease control rating [6, 14]: 98%; Test F disease control rating [7, 14]: 100%; Test I disease control rating [8, 15]: 60%
